IC50 data for twelve molecules are collected here from patent publication US20240382483A1, “HETEROCYCLIC EGFR INHIBITORS FOR USE IN THE TREATMENT OF CANCER” (Blueprint Medicines Corporation, priority 2021, published 2024).

For orientation: IC50 means the midpoint of a concentration-inhibition curve.

One test addresses T1, EGFR (L858R T790M C797S) (Homo sapiens, UniProt P00533, C797S/L858R/T790M).
T1 construct: purchased SignalChem E10-122VG
Kind of test: Biochemical EGFR inhibition assay (Caliper mobility shift), EGFR LRTMCS. To be noted: LRTMCS (PH) IC50 (nM) @ 1 mM ATP (Num), EGFR LRTMCS mutant. The protocol:
Reactions proceeded until between 10% to 20% total peptides were phosphorylated at room temperature (25° C.) and were terminated with 35 mM 2,2′,2″,2′″-(ethane-1,2-diyldinitrilo)tetraacetic acid (EDTA). Product was detected using the Caliper mobility shift detection method where the phosphorylated peptide (product) and substrate were electrophoretically separated and measured. Percent activity was plotted against log concentration of compound and points to generate an apparent IC50.

In test [1] the target is T2, intracellular phosphorylation of EGFR in NCI-H1975 cell line that harbors the EGFR L858R T790M mutations (Homo sapiens, UniProt P00533, L858R/T790M).
T2 construct: NCI-H1975 cell line that harbors the EGFR L858R T790M mutations (ATCC, CRL-5908); host or cells: NCI-H1975
T2 sequence (P00533 25-1210 T790M/L858R): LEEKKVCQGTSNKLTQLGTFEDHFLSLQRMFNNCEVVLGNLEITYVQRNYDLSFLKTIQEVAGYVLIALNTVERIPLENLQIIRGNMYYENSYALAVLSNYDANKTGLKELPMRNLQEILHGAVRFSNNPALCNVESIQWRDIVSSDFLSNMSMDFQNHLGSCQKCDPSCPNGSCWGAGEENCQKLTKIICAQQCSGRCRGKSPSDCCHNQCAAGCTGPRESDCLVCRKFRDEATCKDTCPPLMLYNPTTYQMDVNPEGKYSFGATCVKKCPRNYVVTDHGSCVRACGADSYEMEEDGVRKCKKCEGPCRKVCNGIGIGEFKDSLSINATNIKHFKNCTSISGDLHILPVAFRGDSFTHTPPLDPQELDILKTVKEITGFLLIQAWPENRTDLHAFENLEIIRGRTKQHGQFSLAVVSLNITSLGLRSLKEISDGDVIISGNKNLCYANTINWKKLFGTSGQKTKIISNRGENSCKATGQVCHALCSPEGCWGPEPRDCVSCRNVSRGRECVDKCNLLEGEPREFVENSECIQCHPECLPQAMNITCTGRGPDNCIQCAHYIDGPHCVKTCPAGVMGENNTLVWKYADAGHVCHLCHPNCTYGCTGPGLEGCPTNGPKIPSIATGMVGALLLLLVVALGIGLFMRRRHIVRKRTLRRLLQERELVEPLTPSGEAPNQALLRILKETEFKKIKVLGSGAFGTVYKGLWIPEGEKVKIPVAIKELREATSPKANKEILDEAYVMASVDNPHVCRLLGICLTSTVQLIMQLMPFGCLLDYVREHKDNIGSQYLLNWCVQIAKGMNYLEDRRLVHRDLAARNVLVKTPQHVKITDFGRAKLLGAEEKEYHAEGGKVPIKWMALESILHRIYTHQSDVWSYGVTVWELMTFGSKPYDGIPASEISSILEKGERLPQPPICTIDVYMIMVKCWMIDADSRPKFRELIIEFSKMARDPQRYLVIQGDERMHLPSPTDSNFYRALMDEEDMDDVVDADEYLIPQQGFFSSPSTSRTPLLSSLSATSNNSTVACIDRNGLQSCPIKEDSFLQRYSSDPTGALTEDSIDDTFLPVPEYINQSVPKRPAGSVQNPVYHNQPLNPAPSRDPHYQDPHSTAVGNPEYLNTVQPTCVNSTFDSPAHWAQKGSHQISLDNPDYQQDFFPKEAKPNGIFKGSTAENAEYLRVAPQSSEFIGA
Kind of test: NCI-H1975 pEGFR AlphaLISA assay. It counts as cell-based. Conditions: NCI-H1975 cells (EGFR L858R T790M), p-EGFR (Tyr1068), 4-5 hours incubation; read-out: Ext pEGFR H1975 GMean IC50 (nM) Protocol: @Pharmaron AlphaLISA (Num). As to the method:
On the next day, the test compounds and DMSO control were added into H1975 cell plate followed by incubation at 37C/5% CO2 for 4-5 hours. […] Then 5 μL of a donor bead mix was added to each well followed by overnight incubation at room temperature in dark. On the next day, the plate was read at a compatible plate reader to obtain pEGFR signal. Percent of pEGFR inhibition was plotted against log concentration of compounds to generate IC50 values.

Bounds are passed on as bounds.

T1 sequence (P00533 25-1210 T790M/C797S/L858R): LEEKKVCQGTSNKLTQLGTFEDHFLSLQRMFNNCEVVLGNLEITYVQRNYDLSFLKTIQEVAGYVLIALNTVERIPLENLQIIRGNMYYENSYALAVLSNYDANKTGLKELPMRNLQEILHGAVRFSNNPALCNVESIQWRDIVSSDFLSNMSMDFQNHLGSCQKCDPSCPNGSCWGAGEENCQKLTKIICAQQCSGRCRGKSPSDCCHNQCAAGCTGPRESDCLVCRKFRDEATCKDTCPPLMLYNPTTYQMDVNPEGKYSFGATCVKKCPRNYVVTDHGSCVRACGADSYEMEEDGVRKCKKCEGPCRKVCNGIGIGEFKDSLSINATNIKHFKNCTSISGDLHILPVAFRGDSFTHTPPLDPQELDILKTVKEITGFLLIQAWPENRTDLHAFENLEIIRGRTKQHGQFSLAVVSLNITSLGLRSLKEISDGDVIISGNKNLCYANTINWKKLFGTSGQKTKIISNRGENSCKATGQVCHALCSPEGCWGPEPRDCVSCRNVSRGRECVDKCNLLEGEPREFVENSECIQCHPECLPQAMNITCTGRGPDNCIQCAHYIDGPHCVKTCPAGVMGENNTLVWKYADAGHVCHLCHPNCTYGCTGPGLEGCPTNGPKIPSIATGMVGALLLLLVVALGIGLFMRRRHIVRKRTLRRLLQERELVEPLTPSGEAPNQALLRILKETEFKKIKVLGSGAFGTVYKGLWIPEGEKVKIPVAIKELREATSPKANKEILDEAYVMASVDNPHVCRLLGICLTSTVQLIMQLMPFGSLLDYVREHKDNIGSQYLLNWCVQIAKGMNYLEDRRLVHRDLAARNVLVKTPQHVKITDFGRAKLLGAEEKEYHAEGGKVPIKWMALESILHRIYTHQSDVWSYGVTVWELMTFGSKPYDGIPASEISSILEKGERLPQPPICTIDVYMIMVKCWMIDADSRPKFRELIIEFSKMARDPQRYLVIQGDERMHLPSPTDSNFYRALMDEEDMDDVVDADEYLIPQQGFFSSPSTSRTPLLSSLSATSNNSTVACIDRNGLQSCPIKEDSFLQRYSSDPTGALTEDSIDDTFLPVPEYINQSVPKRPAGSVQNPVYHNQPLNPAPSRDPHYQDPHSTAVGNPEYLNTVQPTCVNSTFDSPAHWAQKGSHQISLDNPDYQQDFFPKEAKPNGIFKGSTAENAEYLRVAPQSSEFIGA

For `CC(C)c1cnc(N2C[C@H](O)[C@H]2C)c2cnc(Nc3ccnc(N4C[C@@H](F)[C@@H](O)[C@@](C)(F)C4)n3)cc12` (single isomer, unassigned) [Example 133, (3S,4R,5R)-3,5-difluoro-1-(4-((8-((2R,3S)-3-hydroxy-2-methylazetidin-1-yl)-5-isopropyl-2,7-naphthyridin-3-yl)amino)pyrimidin-2-yl)-3-methylpiperidin-4-ol or (3R,4S,5S)-3,5-difluoro-1-(4-((8-((2R,3S)-3-hydroxy-2-methylazetidin-1-yl)-5-isopropyl-2,7-naphthyridin-3-yl)amino)pyrimidin-2-yl)-3-methylpiperidin-4-ol], the values for the IC50 (on EGFR (L858R T790M C797S); in test [1]) were less than 15 nM and 10 to 20 nM, respectively.

For `CC(C)c1cnc(N2C[C@H](O)[C@H]2C)c2cnc(Nc3ccnc(N4C[C@H](F)[C@H](O)[C@](C)(F)C4)n3)cc12` (single isomer, unassigned) [Example 134, (3R,4S,5S)-3,5-difluoro-1-(4-((8-((2R,3S)-3-hydroxy-2-methylazetidin-1-yl)-5-isopropyl-2,7-naphthyridin-3-yl)amino)pyrimidin-2-yl)-3-methylpiperidin-4-ol or (3S,4R,5R)-3,5-difluoro-1-(4-((8-((2R,3S)-3-hydroxy-2-methylazetidin-1-yl)-5-isopropyl-2,7-naphthyridin-3-yl)amino)pyrimidin-2-yl)-3-methylpiperidin-4-ol], the IC50 was 30 to 100 nM on EGFR (L858R T790M C797S) and greater than 50 nM in test [1].

`CC(C)c1cnc(N2C[C@H](O)[C@H]2C)c2cnc(Nc3ccnc(N4C[C@H](F)[C@H](O)[C@@](C)(F)C4)n3)cc12` (single isomer, unassigned) [Example 135, (3S,4S,5S)-3,5-difluoro-1-(4-((8-((2R,3S)-3-hydroxy-2-methylazetidin-1-yl)-5-isopropyl-2,7-naphthyridin-3-yl)amino)pyrimidin-2-yl)-3-methylpiperidin-4-ol or (3R,4R,5R)-3,5-difluoro-1-(4-((8-((2R,3S)-3-hydroxy-2-methylazetidin-1-yl)-5-isopropyl-2,7-naphthyridin-3-yl)amino)pyrimidin-2-yl)-3-methylpiperidin-4-ol]: the IC50 on EGFR (L858R T790M C797S) is 20 to 30 nM; in test [1] it was greater than 50 nM.

Consider `CC(C)c1cnc(N2C[C@H](O)[C@H]2C)c2cnc(Nc3ccnc(N4C[C@@H](F)[C@@H](O)[C@](C)(F)C4)n3)cc12` (single isomer, unassigned) [Example 136, (3R,4R,5R)-3,5-difluoro-1-(4-((8-((2R,3S)-3-hydroxy-2-methylazetidin-1-yl)-5-isopropyl-2,7-naphthyridin-3-yl)amino)pyrimidin-2-yl)-3-methylpiperidin-4-ol or (3S,4S,5S)-3,5-difluoro-1-(4-((8-((2R,3S)-3-hydroxy-2-methylazetidin-1-yl)-5-isopropyl-2,7-naphthyridin-3-yl)amino)pyrimidin-2-yl)-3-methylpiperidin-4-ol], for which the IC50 was less than 15 nM on EGFR (L858R T790M C797S) and 20 to 30 nM in test [1].

For the molecule `CC(C)c1cnc(N2C[C@H](O)[C@H]2C)c2cnc(Nc3ccnc(N4C[C@@H](F)[C@@H](O)C(C)(C)C4)n3)cc12` (single isomer, unassigned) [Example 145, (4S,5R)-5-fluoro-1-(4-((8-((2R,3S)-3-hydroxy-2-methylazetidin-1-yl)-5-isopropyl-2,7-naphthyridin-3-yl)amino)pyrimidin-2-yl)-3,3-dimethylpiperidin-4-ol or (4R,5S)-5-fluoro-1-(4-((8-((2R,3S)-3-hydroxy-2-methylazetidin-1-yl)-5-isopropyl-2,7-naphthyridin-3-yl)amino)pyrimidin-2-yl)-3,3-dimethylpiperidin-4-ol], the IC50 on EGFR (L858R T790M C797S) is less than 15 nM; in test [1], 20 to 30 nM.

For the molecule `CC(C)c1cnc(N2CC(O)C2)c2cnc(Nc3ccnc(N4CC[C@@]5(CCO5)C(F)(F)C4)n3)cc12` (single isomer, unassigned) [Example 146, (R)-1-(6-((2-(5,5-difluoro-1-oxa-7-azaspiro[3.5]nonan-7-yl)pyrimidin-4-yl)amino)-4-isopropyl-2,7-naphthyridin-1-yl)azetidin-3-ol or (S)-1-(6-((2-(5,5-difluoro-1-oxa-7-azaspiro[3.5]nonan-7-yl)pyrimidin-4-yl)amino)-4-isopropyl-2,7-naphthyridin-1-yl)azetidin-3-ol], the results for the IC50 (on EGFR (L858R T790M C797S); in test [1]) were less than 15 nM and 30 to 50 nM, respectively.

Turning to `CC(C)c1cnc(N2C[C@@H](C(=O)N(C)C)[C@@H]2C)c2cnc(Nc3ccnc(N4CC[C@@H](O)[C@@](C)(F)C4)n3)cc12` (single isomer, unassigned) [Example 155, (2S,3R)-1-(6-((2-((3S,4R)-3-fluoro-4-hydroxy-3-methylpiperidin-1-yl)pyrimidin-4-yl)amino)-4-isopropyl-2,7-naphthyridin-1-yl)-N,N,2-trimethylazetidine-3-carboxamide or (2R,3S)-1-(6-((2-((3S,4R)-3-fluoro-4-hydroxy-3-methylpiperidin-1-yl)pyrimidin-4-yl)amino)-4-isopropyl-2,7-naphthyridin-1-yl)-N,N,2-trimethylazetidine-3-carboxamide], the figures for the IC50 (on EGFR (L858R T790M C797S); in test [1]) were less than 15 nM and less than 10 nM, respectively.

Take `C[C@H]1CCN1c1ncc(CC2(C)COC2)c2cc(Nc3ccnc(N4CC[C@@H](O)[C@@](C)(F)C4)n3)ncc12` (single isomer, unassigned) [Example 156, (3S,4R)-3-fluoro-3-methyl-1-(4-((8-((S)-2-methylazetidin-1-yl)-5-((3-methyloxetan-3-yl)methyl)-2,7-naphthyridin-3-yl)amino)pyrimidin-2-yl)piperidin-4-ol or (3S,4R)-3-fluoro-3-methyl-1-(4-((8-((R)-2-methylazetidin-1-yl)-5-((3-methyloxetan-3-yl)methyl)-2,7-naphthyridin-3-yl)amino)pyrimidin-2-yl)piperidin-4-ol]: the 50% inhibitory concentration (IC50) on EGFR (L858R T790M C797S) was 20 to 30 nM; in test [1], greater than 50 nM.

Turning to `C[C@H](C#N)c1ncc(N2CC[C@H]2C)c2cnc(Nc3ccnc(N4CC[C@@H](O)[C@@](C)(F)C4)n3)cc12` (single isomer, unassigned) [Example 157, (S)-2-(7-((2-((3S,4R)-3-fluoro-4-hydroxy-3-methylpiperidin-1-yl)pyrimidin-4-yl)amino)-4-((R)-2-methylazetidin-1-yl)-2,6-naphthyridin-1-yl)propanenitrile or (R)-2-(7-((2-((3S,4R)-3-fluoro-4-hydroxy-3-methylpiperidin-1-yl)pyrimidin-4-yl)amino)-4-((R)-2-methylazetidin-1-yl)-2,6-naphthyridin-1-yl)propanenitrile], the IC50 at EGFR (L858R T790M C797S) was less than 15 nM; in test [1] it was greater than 50 nM.

Regarding `C[C@H](CO)c1ccc(N2CC[C@H]2C)c2cnc(Nc3ccnc(N4CC[C@@H](O)[C@@](C)(F)C4)n3)cc12` (single isomer, unassigned) [Example 158, (3S,4R)-3-fluoro-1-(4-((5-((S)-1-hydroxypropan-2-yl)-8-((R)-2-methylazetidin-1-yl)isoquinolin-3-yl)amino)pyrimidin-2-yl)-3-methylpiperidin-4-ol or (3S,4R)-3-fluoro-1-(4-((5-((R)-1-hydroxypropan-2-yl)-8-((R)-2-methylazetidin-1-yl)isoquinolin-3-yl)amino)pyrimidin-2-yl)-3-methylpiperidin-4-ol], the IC50 on EGFR (L858R T790M C797S) fell in the range of 15 to 20 nM; in test [1], 30 to 50 nM.

Consider `CC(C)c1cnc(N2CC[C@@H]2C)c2cnc(Nc3ccnc(N4CC[C@@H](O)[C@@H](F)C4)n3)cc12` (single isomer, unassigned) [Example 159, (3S,4R)-3-fluoro-1-(4-((5-isopropyl-8-((S)-2-methylazetidin-1-yl)-2,7-naphthyridin-3-yl)amino)pyrimidin-2-yl)piperidin-4-ol or (3S,4R)-3-fluoro-1-(4-((5-isopropyl-8-((R)-2-methylazetidin-1-yl)-2,7-naphthyridin-3-yl)amino)pyrimidin-2-yl)piperidin-4-ol], for which the IC50 on EGFR (L858R T790M C797S) was less than 15 nM; in test [1] it was 10 to 20 nM.

With `CC(C)c1cnc(N2CC[C@@H]2C)c2cnc(Nc3ccnc(N4CC[C@H](O)[C@H](F)C4)n3)cc12` (single isomer, unassigned) [Example 160, (3R,4S)-3-fluoro-1-(4-((5-isopropyl-8-((S)-2-methylazetidin-1-yl)-2,7-naphthyridin-3-yl)amino)pyrimidin-2-yl)piperidin-4-ol or (3R,4S)-3-fluoro-1-(4-((5-isopropyl-8-((R)-2-methylazetidin-1-yl)-2,7-naphthyridin-3-yl)amino)pyrimidin-2-yl)piperidin-4-ol], the results for the IC50 (at EGFR (L858R T790M C797S); in test [1]) were less than 15 nM and 10 to 20 nM, respectively.
